pEC50: −log10 of the molar value. Read-outs that look alike come from different tables or passages of the source.
Experiments:
F508del = molecular target: T1, F508del (Homo sapiens, UniProt P13569, DEL508-508); experiment: 3T3 assay: membrane potential optical assay for F508del correction in NIH 3T3 cells; type: cell-based; settings: for Emax: NIH3T3
T1 construct: expressed in transfected cells
Text: 1. Membrane Potential Optical Methods for Assaying F508del Modulation Properties of Compounds
The assay utilizes fluorescent voltage sensing dyes to measure changes in membrane potential using a fluorescent plate reader (e.g., FLIPR III, Molecular Devices, Inc.) as a readout for increase in functional F508del in NIH 3T3 cells. The driving force for the response is the creation of a chloride ion gradient in conjunction with channel activation by a single liquid addition step after the cells have previously been treated with compounds and subsequently loaded with a voltage sensing dye.
2. Identification of Corrector Compounds
To identify correctors of F508del, a single-addition HTS assay format was developed. This HTS assay utilizes fluorescent voltage sensing dyes to measure changes in membrane potential on the FLIPR III as a measurement for increase in gating (conductance) of F508del in F508del NIH 3T3 cells. The F508del NIH 3T3 cell cultures were incubated with the corrector compounds at a range of concentrations for 18-24 hours at 37° C., and subsequently loaded with a redistribution dye. The driving force for the response is a Cl^− ion gradient in conjunction with channel activation with forskolin in a single liquid addition step using a fluorescent plate reader such as FLIPR III.
Bath Solution #1: (in mM) NaCl 160, KCl 4.5, CaCl2) 2, MgCl2 1, HEPES 10, pH 7.4 with NaOH.
Chloride-free bath solution: Chloride salts in Bath Solution #1 (above) are substituted with gluconate salts.
NIH3T3 mouse fibroblasts stably expressing F508del are used for optical measurements of membrane potential. The cells are maintained at 37° C. in 5% CO2 and 90% humidity in Dulbecco's modified Eagle's medium supplemented with 2 mM glutamine, 10% fetal bovine serum, 1×NEAA, b-ME, 1×pen/strep, and 25 mM HEPES in 175 cm^2 culture flasks. For all optical assays, the cells were seeded at ˜20,000/well in 384-well matrigel-coated plates. For the correction assays, the cells are cultured at 37° C. with and without compounds for 16-24 hours.

CFTR = CFTR (Homo sapiens, UniProt P13569); experiment: Membrane Potential Dye, Enteroid Assay A; type: cell-based; settings: for pEC50: read-out: Ent. A EC50
Summary of the method: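 Enteroid cells were loaded with methyl oxonol membrane potential dye (plus CaCCinh-A01 and Chicago Sky Blue) for 25 min at room temperature. Chloride transport was started by switching to chloride-free gluconate stimulation solution, with fluorescence read for 15 min. Activity was expressed as % of a triple-combination CFTR modulator control (3 μM, 3 μM, 300 nM acute).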

[1] = NIH 3T3 cells, F508del correction
[2] = Table 8, read-out: 3T3 Max Activity

Sequence of CFTR (P13569 with tags, fused parts or gaps DEL508-508): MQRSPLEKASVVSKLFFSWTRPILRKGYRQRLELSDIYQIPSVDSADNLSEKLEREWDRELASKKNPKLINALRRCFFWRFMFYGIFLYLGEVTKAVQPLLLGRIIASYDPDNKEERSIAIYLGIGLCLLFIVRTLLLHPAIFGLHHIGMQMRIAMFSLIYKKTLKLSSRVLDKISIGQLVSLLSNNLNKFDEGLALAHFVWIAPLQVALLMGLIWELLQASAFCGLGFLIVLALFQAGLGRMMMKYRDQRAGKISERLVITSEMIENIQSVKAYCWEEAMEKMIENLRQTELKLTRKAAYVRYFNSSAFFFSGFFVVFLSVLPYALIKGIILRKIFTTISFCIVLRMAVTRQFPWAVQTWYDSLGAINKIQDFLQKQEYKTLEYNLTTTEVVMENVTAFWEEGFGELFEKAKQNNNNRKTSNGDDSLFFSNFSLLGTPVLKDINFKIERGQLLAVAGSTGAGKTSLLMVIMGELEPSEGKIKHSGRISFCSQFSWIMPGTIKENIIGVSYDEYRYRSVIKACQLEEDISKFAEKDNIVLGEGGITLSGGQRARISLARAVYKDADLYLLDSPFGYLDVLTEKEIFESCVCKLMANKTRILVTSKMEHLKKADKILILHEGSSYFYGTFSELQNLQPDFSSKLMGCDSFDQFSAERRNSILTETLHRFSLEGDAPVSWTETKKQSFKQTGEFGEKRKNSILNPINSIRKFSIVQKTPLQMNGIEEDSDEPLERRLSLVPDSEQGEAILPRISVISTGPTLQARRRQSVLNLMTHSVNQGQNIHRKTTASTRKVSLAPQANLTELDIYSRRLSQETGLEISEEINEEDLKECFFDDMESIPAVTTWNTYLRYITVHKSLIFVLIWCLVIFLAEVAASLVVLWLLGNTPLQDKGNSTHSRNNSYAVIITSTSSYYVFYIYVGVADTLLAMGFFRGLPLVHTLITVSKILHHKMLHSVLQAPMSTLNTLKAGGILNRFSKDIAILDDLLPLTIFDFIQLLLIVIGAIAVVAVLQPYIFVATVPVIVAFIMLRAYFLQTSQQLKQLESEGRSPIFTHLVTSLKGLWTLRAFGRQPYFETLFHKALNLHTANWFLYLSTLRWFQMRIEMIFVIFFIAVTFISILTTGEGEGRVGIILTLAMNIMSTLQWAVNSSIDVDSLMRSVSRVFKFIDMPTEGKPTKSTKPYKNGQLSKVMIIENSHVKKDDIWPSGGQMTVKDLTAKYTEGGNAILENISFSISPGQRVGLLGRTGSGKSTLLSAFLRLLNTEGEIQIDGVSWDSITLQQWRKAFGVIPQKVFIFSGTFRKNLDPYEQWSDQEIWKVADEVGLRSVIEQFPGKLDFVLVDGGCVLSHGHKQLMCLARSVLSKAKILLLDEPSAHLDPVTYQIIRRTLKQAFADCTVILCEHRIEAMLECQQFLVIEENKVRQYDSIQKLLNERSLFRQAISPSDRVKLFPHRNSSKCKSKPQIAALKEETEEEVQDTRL
T1 sequence (P13569 with tags, fused parts or gaps DEL508-508): as above

Structure (SMILES)	pEC50 (F508del; [1])	Ent. A Max Activity (CFTR; Enteroid Assay A)	pEC50 (CFTR; Enteroid Assay A)	Emax (F508del; [2])	pEC50 (F508del; Table 8)	Ent. A Max Activity (CFTR; Table 8)	pEC50 (CFTR; Table 8)	Emax (F508del; heading: 3T3 Max Activity, NIH 3T3 cells, F508del correction)	3T3 Max Activity (F508del; Table 8)
Cc1cccc(C)c1-c1cc2nc(n1)NS(=O)(=O)c1cccc(c1)C(=O)N[C@H](Cc1ccccc1)CO2 [Compound 350]	> 6.00	+++ (+++ is >600%)	> 6.00	–	–	–	–	–	–
Cc1ccccc1-c1cc2nc(n1)NS(=O)(=O)c1cccc(c1)C(=O)N[C@H](CC(C)C)CO2 [Compound 329]	> 6.00	+++ (+++ is >600%)	> 6.00	–	–	–	–	–	–
Cc1cccc(C)c1-c1cc2nc(n1)NS(=O)(=O)c1cccc(c1)C(=O)N[C@H](C(CC(C)C)CC(C)C)CO2 [Compound 494]	–	–	–	> 60%	> 6.00	+++ (+++ is >60%)	> 6.00	–	–
CCCC[C@@H]1Oc2cc(-c3c(C)cccc3C)nc(n2)NS(=O)(=O)c2cccc(c2)C(=O)N[C@@H]1CC1CCCCC1 (stereo in doubt) [Compound 287]	–	–	–	> 60%	> 6.00	+++ (+++ is >60%)	> 6.00	–	–
Cc1cccc(C)c1-c1cc2nc(n1)NS(=O)(=O)c1cccc(c1)C(=O)NC[C@@H](c1ccc(C(F)(F)F)cc1)O2 (stereo in doubt) [Compound 401]	–	–	–	> 60%	> 6.00	+++ (+++ is >60%)	> 6.00	–	–
Cc1cccc(C)c1-c1cc2nc(n1)NS(=O)(=O)c1cccc(c1)C(=O)NCCCO2 [Compound 204]	5.52 to 6.00	++ (++ is 30-60%)	–	–	–	–	–	–	–
Cc1cccc(C)c1-c1cc2nc(n1)NS(=O)(=O)c1cccc(c1)C(=O)N[C@H](CCC(C)(C)C)CO2 (single isomer, unassigned) [Compound 47]	–	–	–	> 60%	> 6.00	+++ (+++ is >60%)	> 6.00	–	–
Cc1cccc(C)c1-c1cc2nc(n1)NS(=O)(=O)c1cccc(c1)C(=O)NC1CCCC(C1)O2 (stereo not shown) [Compound 203]	> 6.00	++ (++ is 30-60%)	–	–	–	–	–	–	–
Cc1cccc(F)c1-c1cc2nc(n1)NS(=O)(=O)c1cccc(c1)C(=O)N[C@H](CC(C)C)CO2 [Compound 98, (11R)-6-(2-Fluoro-6-methylphenyl)-11-(2-methylpropyl)-9-oxa-2λ^6-thia-3,5,12,19-tetraazatricyclo[12.3.1.14,8]nonadeca-1(17),4,6,8(19),14(18),15-hexaene-2,2,13-trione]	–	–	–	> 60%	> 6.00	+++ (+++ is >60%)	> 6.00	–	–
Cc1cccc(C)c1-c1cc2nc(n1)NS(=O)(=O)c1cccc(c1)C(=O)N[C@H](CC(C)C)[C@@H](C1CCCCC1)O2 [Compound 140]	–	–	–	> 60%	> 6.00	+++ (+++ is >60%)	> 6.00	–	–
Cc1cccc(C)c1-c1cc2nc(n1)NS(=O)(=O)c1cccc(c1)C(=O)N[C@H](C(C)(C)C)CO2 [Compound 361]	–	–	–	> 60%	> 6.00	+++ (+++ is >60%)	> 6.00	–	–
Cc1cccc(C)c1-c1cc2nc(n1)NS(=O)(=O)c1ccccc1C(=O)NCC(C1CCC(C)(C)CC1)O2 (stereo not shown) [Compound 284]	–	–	–	> 60%	> 6.00	+++ (+++ is >60%)	> 6.00	–	–
Cc1cc(C(C)(C)C)ccc1[C@@H]1CNC(=O)c2cccc(c2)S(=O)(=O)Nc2nc(cc(-c3c(C)cccc3C)n2)O1 [Compound 155]	–	–	–	> 60%	> 6.00	–	> 6.00	–	–
Cc1ccc2cc1S(=O)(=O)Nc1nc(cc(-c3c(C)cccc3C)n1)OC[C@@H](CC1CCCCC1)NC2=O [Compound 160]	> 6.00	++ (++ is 30-60%)	5.52 to 6.00	–	–	–	–	–	–
Cc1cccc(C)c1-c1cc2nc(n1)NS(=O)(=O)c1cccc(c1)C(=O)NC[C@H](C1CCCCC1)O2 (stereo in doubt) [Compound 270]	–	–	–	> 60%	> 6.00	+ (+ is <30%)	–	–	–
Cc1cccc(C)c1-c1cc2nc(n1)NS(=O)(=O)c1cccc(c1)C(=O)NC[C@H](c1cccc(C(C)(C)C)c1)O2 (stereo in doubt) [Compound 274]	–	–	–	> 60%	> 6.00	+ (+ is <30%)	4.52 to 5.52	–	–

Structure (SMILES)	pEC50 (F508del; [1])	Ent. A Max Activity (CFTR; Enteroid Assay A)	pEC50 (CFTR; Enteroid Assay A)	Emax (F508del; [2])	pEC50 (F508del; Table 8)	Ent. A Max Activity (CFTR; Table 8)	pEC50 (CFTR; Table 8)	Emax (F508del; heading: 3T3 Max Activity, NIH 3T3 cells, F508del correction)	3T3 Max Activity (F508del; Table 8)
Cc1cccc(C)c1-c1cc2nc(n1)NS(=O)(=O)c1cccc(c1)C(=O)NCC(c1ccc3c(c1)CC(C)(C)O3)O2 (stereo not shown) [Compound 115]	–	–	–	> 60%	> 6.00	–	5.52 to 6.00	–	–
Cc1cccc(C)c1-c1cc2nc(n1)NS(=O)(=O)c1cccc(n1)C(=O)N[C@H](CC1CCCCC1)CO2 [Compound 411]	–	–	–	> 60%	> 6.00	+++ (+++ is >60%)	> 6.00	–	–
Cc1ccccc1-c1cc2nc(n1)NS(=O)(=O)c1cccc(c1)C(=O)N[C@H](CC(C)(C)C)CO2 [Compound 305]	–	–	–	> 60%	> 6.00	+++ (+++ is >60%)	> 6.00	–	–
Cc1cccc(C)c1-c1cc2nc(n1)NS(=O)(=O)c1cncc(c1)C(=O)N[C@H](CC1CCCCC1)CO2 [Compound 412]	–	–	–	> 60%	> 6.00	+++ (+++ is >60%)	> 6.00	–	–
Cc1cccc(C)c1-c1cc2nc(n1)NS(=O)(=O)c1cccc(c1)C(=O)NC[C@@H](Cc1ccccc1)O2 [Compound 347]	> 6.00	+++ (+++ is >600%)	> 6.00	–	–	–	–	–	–
Cc1cccc(C)c1-c1cc2nc(n1)NS(=O)(=O)c1cccc(c1)C(=O)NC[C@@H](c1ccc(C(C)(C)C)cn1)O2 (single isomer, unassigned) [Compound 7, 10-(5-tert-Butyl-2-pyridyl)-6-(2,6-dimethylphenyl)-2,2-dioxo-9-oxa-2λ^6-thia-3,5,12,19-tetrazatricyclo[12.3.1.14,8]nonadeca-1(18),4(19),5,7,14,16-hexaen-13-one]	–	–	–	> 60%	> 6.00	+++ (+++ is >60%)	> 6.00	–	–
COc1cccc(C)c1-c1cc2nc(n1)NS(=O)(=O)c1cccc(c1)C(=O)N[C@H](CC(C)C)CO2 [Compound 318]	> 6.00	+++ (+++ is >600%)	5.52 to 6.00	–	–	–	–	–	–
Cc1cccc(C)c1-c1cc2nc(n1)NS(=O)(=O)c1cccc(c1)C(=O)N[C@H]1CC[C@H](CC1)O2 [Compound 198]	> 6.00	+++ (+++ is >600%)	5.52 to 6.00	–	–	–	–	> 60%	–
Cc1cccc(C)c1-c1cc2nc(n1)NS(=O)(=O)c1cccc(c1)C(=O)NCC(c1ccc3c(c1)OCO3)O2 (stereo not shown) [Compound 118]	–	–	–	> 60%	> 6.00	–	> 6.00	–	–
Cc1cccc(C)c1-c1cc2nc(n1)NS(=O)(=O)c1cccc(c1)C(=O)NCC(c1ccc(C(C)C)cc1)O2 (stereo not shown) [Compound 271]	–	–	–	–	> 6.00	+++ (+++ is >60%)	> 6.00	–	+++ (+++ is >60%)
Cc1cccc(C)c1-c1cc2nc(n1)NS(=O)(=O)c1cccc(c1)C(=O)NC(Cc1ccccc1)CO2 (stereo not shown) [Compound 206]	> 6.00	+++ (+++ is >600%)	> 6.00	–	–	–	–	–	–
Cc1cccc(C)c1-c1cc2nc(n1)NS(=O)(=O)c1cccc(c1)C(=O)N[C@H](CC(C)C)C(C1CC1)O2 (stereo in doubt) [Compound 239]	–	–	–	> 60%	> 6.00	+++ (+++ is >60%)	> 6.00	–	–
Cc1cccc(C)c1-c1cc2nc(n1)NS(=O)(=O)c1cccc(c1)C(=O)NCC(C)(C)CO2 [Compound 202]	> 6.00	++ (++ is 30-60%)	4.52 to 5.52	–	–	–	–	–	–
Cc1cccc(C)c1-c1cc2nc(n1)NS(=O)(=O)c1cccc(c1)C(=O)NCC(c1ccc(C(C)C)cc1)O2 (stereo not shown) [Compound 272]	–	–	–	> 60%	> 6.00	+ (+ is <30%)	5.52 to 6.00	–	–
CC(C)C[C@@H]1COc2cc(-c3ccccc3F)nc(n2)NS(=O)(=O)c2cccc(c2)C(=O)N1 [Compound 315]	–	–	–	> 60%	> 6.00	+++ (+++ is >60%)	5.52 to 6.00	–	–
